Results: patent US20240415918A1, “Polypeptide and its use as a CCK receptor agonist/antagonist” (Centre for Regenerative Medicine & Health, Hong Kong …, priority 2021, published 2024)
Where a SMILES comes first, the peptide text is derived from it. [ ]: non-standard residue; d: D form. Trp(5-OH) = N[C@@H](Cc1c[nH]c2ccc(O)cc12)C(=O)O; dTrp(6-OH) = N[C@H](Cc1c[nH]c2cc(O)ccc12)C(=O)O; sY = N[C@@H](Cc1ccc(OS(=O)(=O)O)cc1)C(=O)O; Phe(3-Br) = N[C@@H](Cc1cccc(Br)c1)C(=O)O; Nle = CCCC[C@H](N)C(=O)O

How the values were obtained:
[1] = molecular target: T1, CCK-B receptors (CHO-CCK) (Homo sapiens, UniProt P32239); assay: Calcium flux (Fluo-8) agonist test on CHO-CCK model cells; assay type: cell-based; details: CHO-CCK cells, Fluo-8 calcium flux
T1 construct: expressed in transfected cells; host or cells: CHO (CHO-CCK model cells)
T1 sequence (P32239 1-447): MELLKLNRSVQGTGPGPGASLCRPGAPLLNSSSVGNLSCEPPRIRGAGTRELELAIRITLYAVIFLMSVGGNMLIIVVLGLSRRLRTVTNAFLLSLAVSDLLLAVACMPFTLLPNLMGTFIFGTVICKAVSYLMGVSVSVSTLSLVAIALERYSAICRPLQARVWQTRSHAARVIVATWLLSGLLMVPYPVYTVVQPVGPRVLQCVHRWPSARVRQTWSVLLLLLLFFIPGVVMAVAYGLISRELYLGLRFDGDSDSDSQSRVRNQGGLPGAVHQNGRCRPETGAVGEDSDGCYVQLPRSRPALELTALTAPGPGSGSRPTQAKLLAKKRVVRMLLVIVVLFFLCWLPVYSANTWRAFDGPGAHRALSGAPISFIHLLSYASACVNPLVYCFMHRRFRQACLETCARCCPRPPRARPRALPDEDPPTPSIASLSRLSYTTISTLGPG
In short: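 Agonist-mode Fluo-8 calcium flux read on CHO-CCK cells after dye loading 30 min at 37 °C plus 30 min at room temperature.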

[2] = molecular target: T1, CCK-B receptors (CHO-CCK); assay: Calcium flux (Fluo-8) antagonist test on CHO-CCK model cells in presence of CCK8; assay type: cell-based
[3] = in presence of 10 nM CCK8, bound in μM

| SMILES | EC50 ([1]; bound in μM) [µM] | EC50 [2, 3] [µM] | EC50 ([2]; in presence of 10 nM CCK8) [µM] | EC50 ([1]; 100% control = 20 nM CCK8) [µM] | EC50 ([1]; bound printed in nm in the cell) [µM] |
| --- | --- | --- | --- | --- | --- |
| CSCC[C@H](NC(=O)[C@H](Cc1ccc(O)cc1)NC(C)=O)C(=O)NCC(=O)N[C@@H](Cc1c[nH]c2ccccc12)C(N)=O [HT-207, Ac-Tyr-Met-Gly-Trp-NH2] (Ac-YMGW-NH2) | > 10 | > 10 |  |  |  |
| CSCC[C@H](NC(=O)[C@H](Cc1ccc(OS(=O)(=O)O)cc1)NC(C)=O)C(=O)NCC(=O)N[C@@H](Cc1c[nH]c2ccccc12)C(N)=O [HT-209, Ac-Tyr(SO3H)-Met-Gly-Trp-NH2] (Ac-[sY]MGW-NH2) | > 10 |  | 2.15 |  |  |
| CSCC[C@H](NC(=O)[C@H](Cc1c[nH]c2ccccc12)NC(=O)CNC(C)=O)C(=O)N[C@@H](CC(=O)O)C(N)=O [HT-211, Ac-Gly-Trp-Met-Asp-NH2] (Ac-GWMD-NH2) | > 10 | > 10 |  |  |  |
| CCCC[C@H](NC(C)=O)C(=O)NCC(=O)N[C@@H](Cc1c[nH]c2ccccc12)C(=O)N[C@@H](CCSC)C(N)=O [HT-212, Ac-Nle-Gly-Trp-Met-NH2] (Ac-[Nle]GWM-NH2) | > 10 | > 10 |  |  |  |
| CCCC[C@H](NC(=O)[C@H](Cc1c[nH]c2ccccc12)NC(=O)CNC(=O)[C@H](CCCC)NC(C)=O)C(N)=O [HT-213, Ac-Nle-Gly-Trp-Nle-NH2] (Ac-[Nle]GW[Nle]-NH2) |  |  | 4.92 | 0.533 |  |
| CSCC[C@H](NC(=O)[C@@H](Cc1c[nH]c2ccccc12)NC(=O)CNC(=O)[C@H](Cc1ccc(O)cc1)NC(=O)[C@H](CC(N)=O)NC(=O)[C@H](CCCCN)NC(=O)[C@@H](NC(=O)[C@H](C)NC(=O)[C@H](CC(N)=O)NC(=O)[C@@H](NC(=O)[C@H](Cc1c[nH]cn1)NC(=O)CNC(=O)[C@H](CO)NC(=O)[C@H](CC(N)=O)NC(=O)[C@H](C)NC(=O)[C@H](Cc1ccc(O)cc1)NC(C)=O)C(C)C)C(C)C)C(=O)N[C@@H](CC(=O)O)C(=O)N[C@@H](Cc1cccc(Br)c1)C(N)=O [HT-218] (Ac-YANSGHVNAVKNYG[dW]MD[Phe(3-Br)]-NH2) |  |  | 0.68 | 0.395 |  |
| CC[C@H](C)[C@H](NC(=O)[C@H](CCC(=O)O)NC(=O)[C@H](CC(N)=O)NC(=O)[C@@H](NC(=O)[C@H](CC(C)C)NC(=O)[C@H](CCC(=O)O)NC(=O)[C@H](CO)NC(=O)[C@H](CCC(=O)O)NC(C)=O)[C@@H](C)O)C(=O)N1CCC[C@H]1C(=O)N[C@@H](C)C(=O)N[C@@H](CCC(=O)O)C(=O)N[C@H](Cc1c[nH]c2ccccc12)C(=O)N[C@@H](CCSC)C(=O)N[C@@H](CC(=O)O)C(=O)N[C@@H](Cc1cccc(Br)c1)C(N)=O [HT-219, Ac-Glu-Ser-Glu-Leu-Thr-Asn-Glu-lle-Pro-Ala-Glu-D-Trp-Met-Asp-Phe(3-Br)-NH2] (Ac-ESELTNEIPAE[dW]MD[Phe(3-Br)]-NH2) |  |  | 2.58 | 0.327 |  |
| CSCC[C@H](NC(=O)[C@@H](Cc1c[nH]c2ccccc12)NC(=O)[C@H](CCC(=O)O)NC(=O)[C@H](CC(C)C)NC(=O)CNC(=O)[C@H](Cc1c[nH]cn1)NC(=O)[C@H](CO)NC(=O)CNC(=O)[C@H](CCCCN)NC(=O)[C@H](CCCNC(=N)N)NC(=O)[C@H](CCCNC(=N)N)NC(=O)[C@H](Cc1c[nH]cn1)NC(=O)[C@H](CCCCN)NC(=O)[C@@H](NC(C)=O)[C@@H](C)O)C(=O)N[C@@H](CC(=O)O)C(=O)N[C@@H](Cc1cccc(Br)c1)C(N)=O [HT-220] (Ac-TKHRRKGSHGLE[dW]MD[Phe(3-Br)]-NH2) |  |  | 2.88 | 8.39 |  |
| CSCC[C@H](NC(=O)[C@H](Cc1ccccc1)NC(C)=O)C(=O)N[C@@H](CC(=O)O)C(=O)N[C@@H](Cc1cccc(Br)c1)C(N)=O [HT-223, Ac-Phe-Met-Asp-Phe(3-Br)-NH2] (Ac-FMD[Phe(3-Br)]-NH2) |  |  | 1.88 | 0.225 |  |
| CSCC[C@H](NC(=O)[C@H](Cc1cccc(Br)c1)NC(C)=O)C(=O)N[C@@H](CC(=O)O)C(=O)N[C@@H](Cc1cccc(Br)c1)C(N)=O [HT-224, Ac-Phe(3-Br)-Met-Asp-Phe(3-Br)-NH2] (Ac-[Phe(3-Br)]MD[Phe(3-Br)]-NH2) |  |  | 0.0803 | 0.0254 |  |
| CCCC[C@H](NC(=O)[C@@H](Cc1c[nH]c2ccccc12)NC(C)=O)C(=O)N[C@@H](CC(=O)O)C(=O)N[C@@H](Cc1c[nH]c2ccc(O)cc12)C(N)=O [HT-226, Ac-D-Trp-Nle-Asp-(5-HTP)-NH2] (Ac-[dW][Nle]D[Trp(5-OH)]-NH2) |  | > 10 |  | 14.2 |  |
| CCCC[C@H](NC(=O)[C@H](Cc1c[nH]c2ccccc12)NC(C)=O)C(=O)N[C@@H](CC(=O)O)C(=O)N[C@@H](Cc1c(C)[nH]c2ccccc12)C(N)=O [HT-229, Ac-D-Trp-Nle-Asp-(2-Me-Trp)-NH2] |  | > 10 |  | 8.2 |  |
| CCCC[C@H](NC(=O)[C@@H](Cc1cn(C)c2ccccc12)NC(C)=O)C(=O)N[C@@H](CC(=O)O)C(=O)N[C@@H](Cc1cccc(Br)c1)C(N)=O [HT-230, Ac-(1-Me-Trp)-Nle-Asp-Phe(3-Br)-NH2] |  |  | 0.0575 | 0.00192 |  |

Now from value to molecule:

| EC50 ([1]; bound in μM) [µM] | EC50 [2, 3] [µM] | EC50 ([2]; in presence of 10 nM CCK8) [µM] | EC50 ([1]; 100% control = 20 nM CCK8) [µM] | EC50 ([1]; bound printed in nm in the cell) [µM] | SMILES |
| --- | --- | --- | --- | --- | --- |
| > 10 | > 10 |  |  |  | CSCC[C@H](NC(=O)[C@H](Cc1ccc(O)cc1)NC(=O)[C@H](CC(=O)O)NC(C)=O)C(=O)NCC(N)=O [HT-206, Ac-Asp-Tyr-Met-Gly-NH2] (Ac-DYMG-NH2) |
| > 10 | > 10 |  |  |  | CSCC[C@H](NC(=O)[C@H](Cc1ccc(OS(=O)(=O)O)cc1)NC(=O)[C@H](CC(=O)O)NC(C)=O)C(=O)NCC(N)=O [HT-208, Ac-Asp-Tyr(SO3H)-Met-Gly-NH2] (Ac-D[sY]MG-NH2) |
|  |  | 6.45 | 0.398 |  | CSCC[C@H](NC(=O)[C@H](Cc1c[nH]c2ccccc12)NC(=O)CNC(=O)[C@H](CCSC)NC(C)=O)C(N)=O [HT-210, Ac-Met-Gly-Trp-Met-NH2] (Ac-MGWM-NH2) |
| > 10 | > 10 |  |  |  | CCCC[C@H](NC(=O)[C@H](Cc1c[nH]c2ccccc12)NC(=O)CNC(C)=O)C(=O)N[C@@H](CC(=O)O)C(N)=O [HT-214, Ac-Gly-Trp-Nle-Asp-NH2] (Ac-GW[Nle]D-NH2) |
|  |  | 0.237 |  | < 0.0001 | CCCC[C@H](NC(=O)[C@H](Cc1c[nH]c2ccccc12)NC(=O)CNC(C)=O)C(=O)N[C@@H](CC(=O)O)C(=O)N[C@@H](Cc1cccc(Br)c1)C(N)=O [HT-215, Ac-Gly-Trp-Nle-Asp-Phe(3-Br)-NH2] (Ac-GW[Nle]D[Phe(3-Br)]-NH2) |
|  |  | 1.44 | 0.588 |  | CSCC[C@H](NC(=O)[C@H](Cc1ccc(OS(=O)(=O)O)cc1)NC(=O)[C@H](CC(=O)O)NC(C)=O)C(=O)NCC(=O)N[C@@H](Cc1c[nH]c2ccccc12)C(N)=O [HT-216, Ac-Asp-Tyr(SO3H)-Met-Gly-Trp-NH2] (Ac-D[sY]MGW-NH2) |
|  |  | 0.475 | 0.0332 |  | CCCC[C@H](NC(=O)[C@H](Cc1c[nH]c2ccccc12)NC(C)=O)C(=O)N[C@@H](CC(=O)O)C(=O)N[C@@H](Cc1c[nH]c2ccccc12)C(N)=O [HT-225, Ac-D-Trp-Nle-Asp-Trp-NH2] |
|  |  | 3.4 | 0.022 |  | CCCC[C@H](NC(=O)[C@@H](Cc1c[nH]c2cc(O)ccc12)NC(C)=O)C(=O)N[C@@H](CC(=O)O)C(=O)N[C@@H](Cc1cccc(Br)c1)C(N)=O [HT-227, Ac-(5-HTP)-Nle-Asp-Phe(3-Br)-NH2] (Ac-[dTrp(6-OH)][Nle]D[Phe(3-Br)]-NH2) |
|  |  | 3.07 | 0.262 |  | CCCC[C@H](NC(=O)[C@H](Cc1c[nH]c2ccccc12)NC(C)=O)C(=O)N[C@@H](CC(=O)O)C(=O)N[C@@H](Cc1cn(C)c2ccccc12)C(N)=O [HT-228, Ac-D-Trp-Nle-Asp-(1-Me-Trp)-NH2] |
